# Experimental data reported in US12404332B2, “Methods for diagnosing and treating cancers” (Research Development Foundation, priority 2020, dated 2025).
# “Also recorded” adds a separate entry of the source.
# Key:
# [1] = system: mTORC1; assay: Western blots for mTORC1 pathway and LC3 autophagy; assay type: cell-based
# Description: (§1) FIGS. 40A-C: CAMB suppresses mTORC1 signals and reduces TIC numbers. FIG. 40A, Western blots for proteins in the mTORC1 pathway. Cells were treated with chlorambucil as indicated concentration for 48 hours. FIG. 40B, Western blot for LC3I/II to assess autophagy in cell lysates treated±chlorambucil at indicated concentrations. FIG. 40C, Percent of ALDH^hi TIC by flow cytometry of ES2 cells cultured±chlorambucil. Percent CD44^+CD24^+ ID8agg TIC and CD44^+CD133^+CD24^+ B16 TIC detected by flow cytometry.
# Western blotting and immunoprecipitation: To prepare whole cell lysates, cells were harvested and lysed in RIPA (radioimmunoprecipitation assay) buffer plus 1 mM phenylmethylsulphonyl fluoride and Halt protease/phosphatase inhibitor cocktail (Thermo Scientific) at 4° C. Protein concentrations were measured by BCA Protein Assay Kit (Thermo Scientific). Protein was run on precast 4-15% sodium dodecyl sulfate polyacrylamide gels (Bio-Rad), transferred to polyvinylidene fluoride membranes (GE Water and Process Technologies), and then blocked in 5% non-fat milk for 1 hour at room temperature. The membranes were then incubated with 1:1000 diluted primary antibodies against indicated proteins (Cell Signaling). Specific antibody binding was detected by chemiluminescence using Western Lightening Plus regent (Perkin Elmer). Cells for (co) immunoprecipitation experiments were seeded in 15-cm dishes and cultured as described, using 6 million cells per immunoprecipitation reaction. For protein ubiquitination, cells were lysed in denaturing buffer (50 mM Tris-HCl, 0.5 mM EDTA and 1% SDS) followed by heating at 95° C. for 10 minutes and then quenched with 9 volumes of quenching buffer (0.5% Triton X-100, 20 mM Tris-HCl (pH 8.0), 137 mM NaCl, 10% glycerol, 2 mM EDTA). Protease inhibitor cocktail (Roche) was added fresh to all buffers. Cell lysates were incubated on a rotator for 30 minutes at 4° C., and then centrifuged at 20,000 g for 15 minutes at 4° C. Supernatants were subsequently incubated with anti-PD-L1 antibody overnight and processed using Dynabeads Protein G for Immunoprecipitation (Thermo Fisher Scientific). The final eluate was processed and Western blotting was performed.
# [2] = system: B16 cells; assay: Tumor-initiating cell (TIC) flow cytometry, B16 cells; assay type: cell-based, mouse
# Description: as §1
# Flow cytometry: Mice were sacrificed by cervical dislocation after induction of deep isoflurane anesthesia. ID8agg tumors were collected and cells were stained as described (Derup et al., 2020) using LSR II hardware and analyzed by FACS Diva (BD Bioscience) or Flow Jo software (Flow Jo, LLC). Anti-mouse (clone 10F.9G2) and human (clone 29E.2A3) PD-L1 [both PE/Cy7, Cat #124314 (mouse) 329718 (human)] were matched with isotype control. Apoptosis assessment used Annexin V and propidium iodide (Thermo Scientific) per manufacturer instruction.
smiles,measurement,setting,value
O=C(O)CCCc1ccc(N(CCCl)CCCl)cc1 [chlorambucil],autophagy,[1],promote autophagy
same,mTORC1 signals,[1],suppress mTORC1 signals; also recorded: inhibits mTORC1 signaling
same,LC3 lipidation (LC3 I and II),[1]; Western blot,increased LC3 lipidation
same,phosphorylation of P70S6K and 4EBP1,[1]; Western blot,reduced phosphorylation of P70S6K and 4EBP1 in a dose-dependent manner
same,CD44^+CD24^+ TIC population,[2],significantly reduced
